Test results as given in US20230270692A1, “COMPOUNDS FOR CHRONIC DISORDERS” (Pillai Universal LLC, priority 2020, published 2023).
Read-outs that look alike come from different tables or passages of the source.

Columns and labels:
[1] = test system: panel of human normal cell lines; assay: MTT cytotoxicity of anticancer agents on normal cell lines, alone and with Compound I; conditions: Homo sapiens, read-out: IC50 (average)
Method: The cytotoxicity of anticancer agents was studied using a panel of human normal cell lines alone and with the combination of Compound I of the present invention. The cytotoxicity effect was determined by MTT assay. The following cell lines were used: Human epidermal keratinocytes cells (HaCaT), Human dermal fibroblast (HDF), Human bone marrow mesenchymal stem cells (HBMSCs), Human normal hepatocytes cells (THLE2), Human cardiac cells (AC-16), Human intestinal epithelial cells (HIEC-6), Human neuronal cells (SHSY-5Y), Human vascular Endothelial cells (HuVECs), Human lung epithelial cells (Calu-3), Human lung fibroblast (MRC 5).
Next, the cells were treated with anticancer agents in combination with Compound I of the present invention.

[2] = test system: xenograft nude mice models (triple-negative breast cancer, pancreatic, liver, colon cancer); assay: In vivo metastasis / stage IV tumor studies in xenograft nude mice versus standard drugs
[3] = test system: xenograft nude mice models (triple-negative breast cancer, pancreatic, liver, colon cancer); conditions: mouse, in vivo
PANC-1 xenograft = PANC-1 xenograft mouse model; assay type: in vivo; conditions: day 5 to day 30; 25 mg/kg gemcitabine, 10 mg/kg Compound I
Method: Study Design: A PANC-1 xenograft mouse model was carried out according to the experimental design described in FIG. 21A. Tumor volume was monitored over a 30-day period upon administration of PBS alone (vehicle control), 25 mg/kg gemcitabine, and 10 mg/kg Compound I.

normal pancreatic cells = assay: Viability of normal pancreatic cells; assay type: cell-based, Human; conditions: at 6 h
Method: (§1) The synthesized compounds of Formula 1-4 were evaluated for cell proliferation, apoptosis, cell cycle arrest, the generation of reactive oxygen species and calcium were measured using MTT assay and flow cytometry, respectively. The expression of apoptosis- and proliferation-related proteins was determined by western blotting. The effect of molecules on apoptosis-related mRNA expression in cancer cells was detected by RT-PCR.
(§2) Changes in cell morphology were detected by the presence of cell membrane blebbing, chromatin condensation, and formation of apoptotic bodies (FIG. 10A).

[4] = test system: Pancreatic adenocarcinoma cells (PANC); assay: MTT cell viability of pancreatic cancer cells; assay type: cell-based, Human; conditions: Homo sapiens, Pancreatic cancer cell
Method: as §1, §2

Row | Molecule | IC50 [1] [µM] | mortality ([2]; treating stage IV cancer) [%] | mortality ([2]; nude, mouse, in vivo) [%] | Toxicity [3] | other results
1 | COc1cccc2c1C(=O)c1c(O)c3c(c(O)c1C2=O)C[C@@](O)(C(=O)CO)C[C@@H]3O[C@H]1C[C@H](N)[C@H](O)[C@H](C)O1 [Doxorubicin] | 12.9 to 40.5 |  |  |  | 
2 | Avastin: current treatment standard drug, Inhibition of VEGF |  | 60 |  |  | Metastasis (prevention) ([2]; mouse, in vivo): 10%; Toxicity ([2]; mouse, in vivo): Toxic to vital; Tumor volume (reduction / changes) ([2]; mouse, in vivo): 20%; mortality ([2]; mouse, in vivo): 60%
3 | Nc1cccc2c1CN(C1CCC(=O)NC1=O)C2=O (stereo not shown) [Revlimid] |  | 100 | 100 | Cardiotoxicity, Hepatotoxicity, Toxicity to vital organs and normal tissues | 
4 | CCN(CC)CCCC(C)Nc1ccnc2cc(Cl)ccc12 (stereo not shown) [Chloroquine] | 12.9 to 40.5 |  |  |  | 
5 | Nc1ccn([C@@H]2O[C@H](CO)[C@@H](O)C2(F)F)c(=O)n1 [Gemcitabine] | 12.9 to 40.5 | 50 | 50 | Developed | CSCs (target on CSCs population) ([2]; mouse, in vivo): 5% Target on; tumor volume (PANC-1 xenograft): steadily increases
6 | CCN(CCO)CCCC(C)Nc1ccnc2cc(Cl)ccc12 (stereo not shown) [Hydroxychloroquine] | 12.9 to 40.5 |  |  |  | 
7 | CCc1c2c(nc3ccc(OC(=O)N4CCC(N5CCCCC5)CC4)cc13)-c1cc3c(c(=O)n1C2)COC(=O)[C@]3(O)CC [Irinotecan] | 12.9 to 40.5 |  |  |  | 
8 | O=c1[nH]cc(F)c(=O)[nH]1 [5-Fluorouracil] | 12.9 to 40.5 | 70 | 70 | Cardiotoxicity, Hepatotoxicity | Antioxidant Activity (increased antioxidant parameters) ([2]; mouse, in vivo): 10% of; Tumor volume (reduction / changes) ([2]; mouse, in vivo): 35%; Toxicity (normal pancreatic cells): 40.32±0.98%; cytotoxicity at 10 µM ([4]; 3 h, read-out: decrease in viable cells): 30.21 ± 0.21%; IC50 ([4]; PANC cells, after 24 hours of exposure): 5.21 ± 0.19 µM
9 | CC[C@]1(O)C[C@H]2CN(CCc3c([nH]c4ccccc34)[C@@](C(=O)OC)(c3cc4c(cc3OC)N(C=O)[C@H]3[C@@](O)(C(=O)OC)[C@H](OC(C)=O)[C@]5(CC)C=CCN6CC[C@]43[C@@H]65)C2)C1 [Vincristine] | 12.9 to 40.5 |  |  |  | 
